# Source: patent publication US8901337B2, “Metal complexes having dual histone deacetylase inhibitory and DNA-binding activity” (Royal College of Surgeons in Ireland, priority 2009, dated 2014)
# Tests used:
# [1] = test system: DNA in A2780 cisR cells; experiment: Pt binding to DNA in cultured cells (ICP-MS), A2780 cisR; type: cell-based, human; conditions: 4 hours of cell treatment
# Description: Pt DNA binding of Pt complexes was measured in SW480 cells (colon cancer) and CH1 cells (lymphoma) or alternatively A2780 P and A2780 cisR cells (sensitive and resistant to cisplatin respectively). The cells were seeded in 60 mm tissue culture dishes with 10 ml of their respective medium. After overnight incubation the medium was removed and replaced with 10 ml of the respective medium containing a platinum complex giving a final concentration of 43 or 40 μM depending on the experiment. The cells were incubated with a given Pt complex for either 2 or 4 h depending on the experiment. The cells were trypsinised and centrifuged. The supernantant was removed and the cells washed twice with 1×PBS and centrifuged. The pellet was re-suspended in DNA buffer to which Proteinase K (20 mg/mL) and 10% SDS were added. After a gentle shake and incubation at 45° C. for two hours, RNAse (100 mg/mL) was added and the cells were incubated at 37° C. overnight. The volume of supernatant was noted and an equal volume of phenol was added.
# The resulting mixture was shook for 10 min, then centrifuged for 10 min at 10° C. The supernatant was transferred into a new centrifuge tube (15 ml) and the volume was noted. […] The absorbance of the DNA by was measured by UV spectrophotometry at 260 nm and 280 nm and the concentration of DNA calculated. Platinum bound to DNA was determined by ICP-MS.
# [2] = test system: A2780 P ovarian cancer cells; experiment: Cell cycle progression, flow cytometry (propidium iodide); type: cell-based, human; conditions: 72 hr
# Description: Both floating and attached cells were collected by centrifugation, washed twice in ice-cold PBS, pH 7.4, harvested by scraping with a rubber policeman, and then collected by centrifugation. The effect of drug treatment on cell cycle progression was determined using flow cytometric analysis according to the method of Nunez (2001).^21 Briefly, cell suspensions were fixed and permeabilised by vigorous addition of nine volumes of ice-cold 70% (v/v) ethanol and stored at −20° C. for a minimum of 24 h, prior to analysis. Cells at a density of approximately 1×10^6 were re-suspended in 800 μl of propidium iodide staining solution (20 μg/ml propidium iodide and 200 μg/ml RNase A in PBS, pH 7.4) and incubated in the dark at room temperature for 30 min. The percentage of cells in the sub-G1, G0/G1, S and G2/M phases of the cell cycle was determined over a range of concentrations and time points, and analysed from at least three independent experiments using Cell Quest™ software (Becton Dickinson).
# [3] = test system: A2780 cisR cells; experiment: Morphological analysis (methylene blue/eosin and DAPI staining), A2780 cisR; type: cell-based, human; conditions: IC50 and IC75, 72 hr
# Description: Preparations of A2780 P and A2780-cisR cells were exposed to test agents for 72 hr and stained with methylene blue and eosin^19. Drug-treated cells were grown in petri dishes, washed once with PBS, once with PBS:methanol (1:1, v/v), and then fixed in 100% (v/v) methanol for 10 min. Following fixation, cell monolayers were rinsed with anhydrous methanol and stained with methylene blue and eosin for 2 min. Monolayers were then agitated for a further 2 min, destained by rinsing under a gentle stream of water and then finally rinsed with distilled water. Phase contrast microscopy was carried out using a Ceti-phase contrast microscope.
# Drug-treated cells were also stained using a DNA-binding agent commonly used to stain nuclei and visualise nuclear morphology and DNA condensation, namely 4,6-diamidino-2-phenylindole (DAPI). Briefly, a monolayer of drug-treated cells was washed in PBS and fixed with 4% (w/v) paraformaldehyde for 30 min at room temperature. These cells were then permeabilized with 0.2% (v/v) Triton X in PBS and incubated with 1 μg/ml of DAPI for 30 min. Cells were again washed three times with PBS and viewed using a fluorescent microscope with 340/380 nm excitation filter at 250× magnification. Apoptotic cells were confirmed by identification of intensely stained, fragmented nuclei and condensed chromatin.
# [4] = test system: colon cancer cell line (SW480); experiment: MTS in vitro cytotoxicity, SW480; type: cell-based; conditions: 72 hours, Table 1, read-out: IC50 values against SW480
# Description: All cells were kept in a humidified atmosphere with 5% CO2 at 37° C.; cells from confluent monolayers were removed from flasks by trypsin/EDTA solution and their viability determined by the trypan blue exclusion test.
# Cell growth was determined by the [3-(4,5-dimethylthiazol-2-yl)-5-(3-carboxymethoxyphenyl)-2-(4-sulfophenyl)-2H-tetrazolium, inner salt, (MTS test, Promega, Southampton, UK), a colorimetric assay based on the ability of the viable cells to reduce a soluble yellow tetrazolium salt to blue formazan. 10,000 ovarian cancer cells or 3,000 fibroblast cells for example were seeded per well onto 96-well plates in 100 μl of the appropriate culture medium. 24 hr after sowing the cells, the media was removed and the cells were treated by adding 100 μl of the compound media solutions at the appropriate concentrations. cis-[Pt(NH3)2(malSAHA−2H)], cisplatin and cis-[Pt(NH3)2(mal)] were prepared freshly in cell culture media. […] The maximum percentage of dmso present in any well was less than 0.1% (v/v). cis-[Pt(NH3)2(malBel—2H)], belinostat and malbelinostat were freshly prepared in dimethyl formamide (DMF) and diluted in culture media prior to the MTS assay. The maximum percentage of DMF present in any well was 0.5% (v/v). A range of concentrations between 1 μM and 100 μM was used.
# After 72 hr of treatment, 20 μl of the MTS reagent was added to each well and the plates incubated for 2 hr at 37° C. […] The percentages of surviving cells relative to untreated controls were determined.
Compound,DNA binding in A2780 cisR compared with cisplatin (in words) [1],% G0/G1 ± S.E.M. ([2]; concentration equal to IC50) [%],% G2/M ± S.E.M. ([2]; concentration equal to IC50) [%],% S ± S.E.M. ([2]; concentration equal to IC50) [%],% Sub-G1 ± S.E.M. ([2]; concentration equal to IC50) [%],% G0/G1 ± S.E.M. ([2]; concentration equal to IC75) [%],% G2/M ± S.E.M. ([2]; concentration equal to IC75) [%],% S ± S.E.M. ([2]; concentration equal to IC75) [%],% Sub-G1 ± S.E.M. ([2]; concentration equal to IC75) [%],sub-G1 accumulation (in words) ([2]; A2780 P),cellular morphology and integrity of DNA [3],IC50 [4] [µM],DNA-bound Pt in A2780 cisR ([1]; 40 μM of Pt complexes)
"[NH2][Pt]1([NH2])[O]C(=O)C(Cc2ccc(NS(=O)(=O)c3ccc(/C=C/C(=O)NO)cc3)cc2)C(=O)[O]1 [cis-[Pt(NH3)2(malBel−2H)], cis-[Pt(NH3)2(malBel−2H)].1.5H2O]",binds DNA in A2780 P and A2780 cisR cancer cells and to a greater extent than cisplatin,16.16 ± 0.88,7.91 ± 0.03,7.21 ± 0.11,60.86 ± 0.26,11.75 ± 0.17,8.04 ± 0.72,5.59 ± 0.36,67.67 ± 0.43,dose dependent increase in sub-G1 accumulation compared to control cells,"considerable thinning of the monolayer, attenuation of cells and the nuclei to be intensively stained and fragmented",,
"[NH2][Pt]1([NH2])[O]C(=O)C(Cc2ccc(NC(=O)CCCCCCC(=O)NO)cc2)C(=O)[O]1 [cis-[Pt(NH3)2(malSAHA−2H)], cis-[Pt(NH3)2(malSAHA−2H)].3H2O]",,,,,,,,,,,,13.4 ± 3.9,
"N.N.[Cl][Pt][Cl] [cisplatin, cis-[Pt^II(NH3)2Cl2], reference compound]",,18.58 ± 0.58,5.44 ± 0.04,5.33 ± 0.13,64.16 ± 0.74,20.88 ± 0.14,4.73 ± 0.13,5.81 ± 0.30,61.81 ± 0.39,,"considerable thinning of the monolayer, attenuation of cells and the nuclei to be intensively stained and fragmented",8 ± 0.3,665 · 10^−15 ± 6 moles of Pt/μg of DNA
